Laboratory results: patent publication US10065990B2, “Cyclic peptide compound, and preparation method, pharmaceutical composition and use thereof” (HANGZHOU GUANYU BIO-MEDICAL CO., LTD, priority 2013, dated 2018)
Where two headings read alike, the source gives them in different places.

What was measured:
[1] = system: BGC-823 (human gastric cancer cells); experiment: MTT cancer cell growth inhibition; format: cell-based; settings: BGC-823 cells, MTT, 72 hours incubation, read-out: GI50 BG
How it was run: (§1)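 Seed 1500 cells/well, incubate overnight. Add compound, 10^−5 to 10^−10 M final, n=3; culture 72 h, 37° C., 5% CO2. Add MTT, 4 h. Discard supernatant, dissolve in DMSO. Read 570 nm; calculate viability and GI50.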

[2] = system: MOLT-4 (human acute lymphoblastic leukemia cells); experiment: MTT cancer cell growth inhibition; format: cell-based; settings: MOLT-4 cells, MTT, 72 hours incubation, read-out: GI50 Mol
How it was run: as §1

[3] = system: HCC827 (human non-small cell lung cancer cells); experiment: MTT cancer cell growth inhibition; format: cell-based; settings: MTT, 72 hours incubation, HCC827 cells, read-out: GI50 HCC827
How it was run: as §1

[4] = system: Bel-7402 (human hepatoma cells); experiment: MTT cancer cell growth inhibition; format: cell-based; settings: MTT, 72 hours incubation, Bel-7402 cells, read-out: GI50 Bel-7402
How it was run: as §1

[5] = system: H1975 (non-small cell lung adenocarcinoma); experiment: MTT cancer cell growth inhibition; format: cell-based; settings: MTT, 72 hours incubation, H1975 cells, read-out: GI50 H1975
How it was run: as §1

[6] = system: N-87 (human gastric cancer cells); experiment: MTT cancer cell growth inhibition; format: cell-based; settings: MTT, 72 hours incubation, N-87 cells, read-out: GI50 N-87
How it was run: as §1

[7] = system: Hela (human cervical cancer cells); experiment: MTT cancer cell growth inhibition; format: cell-based; settings: Hela cells, MTT, 72 hours incubation, read-out: GI50 Hela
How it was run: as §1

[8] = system: KBM5-T315I (human chronic myelogenous leukemia); experiment: MTT cancer cell growth inhibition; format: cell-based; settings: MTT, 72 hours incubation, KBM5-T315I cells, read-out: GI50 KBM5-T315I
How it was run: as §1

[9] = system: MDA-MB-231 (breast cancer cells); experiment: MTT cancer cell growth inhibition; format: cell-based
How it was run: as §1

[10] = system: lncap (prostate cancer cells); experiment: MTT cancer cell growth inhibition; format: cell-based; settings: lncap cells, MTT, 72 hours incubation, read-out: GI50 lnca
How it was run: as §1

[11] = system: DU145 (human prostate cancer cells); experiment: MTT cancer cell growth inhibition; format: cell-based; settings: DU145 cells, MTT, 72 hours incubation, read-out: GI50 Du1
How it was run: as §1

[12] = system: KBM-5 (human chronic myelogenous leukemia); experiment: MTT cancer cell growth inhibition; format: cell-based; settings: MTT, 72 hours incubation, KBM-5 cells, read-out: GI50 KBM-5
How it was run: as §1

[13] = system: Huh-7 (human hepatoma cells); experiment: MTT cancer cell growth inhibition; format: cell-based; settings: MTT, 72 hours incubation, Huh-7 cells, read-out: GI50 Huh-7
How it was run: as §1

[14] = system: SGC-7901 (human gastric cancer cells); experiment: MTT cancer cell growth inhibition; format: cell-based; settings: MTT, 72 hours incubation, SGC-7901 cells, read-out: GI50 SGC-7901
How it was run: as §1

[15] = system: U937 (human leukemia cells); experiment: MTT cancer cell growth inhibition; format: cell-based; settings: U937 cells, MTT, 72 hours incubation, read-out: GI50 U93
How it was run: as §1

[16] = system: HT1080 (human fibrosarcoma cells); experiment: MTT cancer cell growth inhibition; format: cell-based; settings: HT1080 cells, MTT, 72 hours incubation, read-out: GI50 HT1
How it was run: as §1

[17] = system: K562 (human leukemia cells); experiment: MTT cancer cell growth inhibition; format: cell-based; settings: MTT, 72 hours incubation, K562 cells, read-out: GI50 K562
How it was run: as §1

[18] = system: PANC-1 (Pac-1, human pancreatic cancer cells); experiment: MTT cancer cell growth inhibition; format: cell-based; settings: PANC-1 cells, MTT, 72 hours incubation, read-out: GI50 PAN
How it was run: as §1

[19] = system: A549 (human lung cancer cells); experiment: MTT cancer cell growth inhibition; format: cell-based; settings: A549 cells, MTT, 72 hours incubation, read-out: GI50 A54
How it was run: as §1

[20] = system: MCF-7 (human breast cancer cells); experiment: MTT cancer cell growth inhibition; format: cell-based; settings: MCF-7 cells, 72 hours incubation, read-out: GI50 MCF
How it was run: as §1

HDAC7 = molecular target: T1, HDAC7 (Homo sapiens, UniProt Q8WUI4); experiment: HDAC biochemical activity measurement (fluorescent substrate deacetylation);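 note: fluorogenic deacetylation assay using acetyl-lysine substrate at 20 µM, enzyme and compound incubated 30 min at 37 °C, then developer added, fluorescence read at 360/460 nm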; settings: HDAC7; 37° C. 30 minutes
T1 sequence (Q8WUI4 1-952): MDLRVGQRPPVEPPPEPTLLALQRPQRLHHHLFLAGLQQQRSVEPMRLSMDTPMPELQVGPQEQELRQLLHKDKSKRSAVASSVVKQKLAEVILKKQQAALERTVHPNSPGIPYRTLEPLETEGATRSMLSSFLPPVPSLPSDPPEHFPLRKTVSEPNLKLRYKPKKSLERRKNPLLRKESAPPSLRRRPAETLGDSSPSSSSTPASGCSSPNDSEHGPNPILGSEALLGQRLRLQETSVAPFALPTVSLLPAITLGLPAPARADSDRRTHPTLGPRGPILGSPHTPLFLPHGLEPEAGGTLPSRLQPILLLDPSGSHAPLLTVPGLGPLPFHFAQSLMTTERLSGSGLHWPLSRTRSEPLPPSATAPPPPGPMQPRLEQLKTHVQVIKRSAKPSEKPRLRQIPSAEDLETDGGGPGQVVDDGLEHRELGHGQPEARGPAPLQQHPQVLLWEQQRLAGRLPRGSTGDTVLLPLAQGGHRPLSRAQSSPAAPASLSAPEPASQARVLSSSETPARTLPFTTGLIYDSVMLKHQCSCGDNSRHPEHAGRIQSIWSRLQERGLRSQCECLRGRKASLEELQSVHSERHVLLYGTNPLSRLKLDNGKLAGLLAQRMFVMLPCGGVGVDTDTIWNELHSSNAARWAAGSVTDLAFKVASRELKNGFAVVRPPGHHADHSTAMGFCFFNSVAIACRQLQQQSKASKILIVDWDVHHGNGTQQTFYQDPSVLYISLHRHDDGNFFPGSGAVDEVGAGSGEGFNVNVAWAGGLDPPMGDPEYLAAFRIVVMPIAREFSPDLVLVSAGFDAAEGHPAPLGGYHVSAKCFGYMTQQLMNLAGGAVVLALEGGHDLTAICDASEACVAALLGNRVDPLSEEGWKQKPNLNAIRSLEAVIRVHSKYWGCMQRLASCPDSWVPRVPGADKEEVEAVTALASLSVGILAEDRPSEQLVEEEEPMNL
Description: The chemical activity of the compound is determined according to the degree of deacetylation inhibition of the HDAC enzyme. This experiment measured the degree of deacetylation related to tumor proliferation and metastasis of HDAC1, HDAC2, HDAC3, HDAC8, HDAC11 five subtypes HDAC enzymes. After the substrate containing an acetylated lysine side chain and HDAC enzyme are labeled with a fluorescent label, the fluorescent substrate is de acetyl. The fluorescent labeled substrate is cleaved by the enzyme, and the fluorescent substance is released, which generates 460 nm emission light under the excitation of 360 nm light.
HDAC substrate was diluted with reaction buffer to 200M (reaction concentration of 20M), the HDAC enzyme was diluted to the appropriate concentration, then added different concentrations of the test compounds and acted at 37° C. 30 minutes, and then added the same volume of 2-times concentration substrate developing solution (developer), incubated at room temperature for 15 minutes. Finally, the last reading measured with a microplate plate reader, excitation light was 360 nm, the emitted light was 460 nm, data processing software was Prime 4, and the results are shown in Table 1.

[21] = Homo sapiens, MDA-MB-231, 72 h, read-out: GI50 MDA-MB-231, MTT, 72 hours incubation, MDA-MB-231 cells

SMILES | GI50 ([1]; Homo sapiens, BGC-823, 72 h) | GI50 ([2]; Homo sapiens, MOLT-4, 72 h) | GI50 ([3]; Homo sapiens, HCC827, 72 h) | GI50 ([4]; Homo sapiens, Bel-7402, 72 h) | GI50 ([5]; Homo sapiens, NCI-H1975, 72 h) | GI50 ([6]; Homo sapiens, 72 h) | GI50 ([7]; Homo sapiens, HeLa, 72 h) | GI50 ([8]; Homo sapiens, 72 h) | GI50 [9, 21] | GI50 ([10]; Homo sapiens, LNCaP, 72 h) | GI50 ([11]; Homo sapiens, DU-145, 72 h) | GI50 ([12]; Homo sapiens, KBM5, 72 h) | GI50 ([13]; Homo sapiens, Huh-7, 72 h) | GI50 ([14]; Homo sapiens, SGC-7901, 72 h) | GI50 ([15]; Homo sapiens, U-937, 72 h) | GI50 ([16]; Homo sapiens, HT-1080, 72 h) | GI50 ([17]; Homo sapiens, K562, 72 h) | GI50 ([18]; Homo sapiens, PANC-1, 72 h) | GI50 ([19]; Homo sapiens, A549, 72 h) | IC50 HDAC7 (HDAC7) | further results
CSc1cc2nc(c1)C(=O)NC(=C(C)C)C(=O)N[C@@H](C(C)C)C(=O)O[C@H](/C=C/CCSC(C)=O)CC(=O)NC2 [Compound 208] | 0.05 µM | 0.04 µM | 0.067 µM | 0.017 µM | 0.035 µM | 0.056 µM | 0.08 µM | 0.049 µM | 0.018 µM | 0.03 µM | 0.04 µM | 0.018 µM | 0.026 µM | 0.026 µM | 0.06 µM | 0.07 µM | 0.076 µM | 0.03 µM | 0.05 µM | no activity | GI50 ([20]; Homo sapiens, MCF7, 72 h): 0.03 µM
C/C=C1\NC(=O)c2cc(SC)cc(n2)CNC(=O)C[C@@H](/C=C/CCSC(C)=O)OC(=O)[C@H](C(C)C)NC1=O [Compound 166] | 0.07 µM | 0.03 µM | 0.031 µM | 0.068 µM | 0.026 µM | 0.073 µM | 0.05 µM | 0.053 µM | 0.017 µM | 0.07 µM | 0.06 µM | 0.05 µM | 0.056 µM | 0.042 µM | 0.03 µM | 0.08 µM | 0.046 µM | 0.02 µM | 0.01 µM | no activity | GI50 ([20]; Homo sapiens, MCF7, 72 h): 0.06 µM
C/C=C1\NC(=O)c2nc(ccc2SC)CNC(=O)C[C@@H](/C=C/CCSC(=O)CCC)OC(=O)[C@H](C(C)C)NC1=O [Compound 159] | 0.08 µM | 0.05 µM | 0.035 µM | 0.023 µM | 0.024 µM | 0.063 µM | 0.07 µM | 0.053 µM | 0.036 µM | 0.06 µM | 0.04 µM | 0.035 µM | 0.058 µM | 0.075 µM | 0.06 µM | 0.05 µM | 0.062 µM | 0.05 µM | 0.03 µM | no activity | GI50 ([20]; Homo sapiens, MCF7, 72 h): 0.05 µM
C/C=C1\NC(=O)c2cc(SC)cc(n2)CNC(=O)C[C@@H](/C=C/CCSC(C)=O)OC(=O)[C@H](C)NC1=O [Compound 214] |  |  |  |  |  |  |  |  |  |  |  |  |  |  |  |  |  |  |  | no activity | GI50 [1]: 0.02 µM; GI50 [2]: 0.05 µM; GI50 [3]: 0.035 µM; GI50 [4]: 0.071 µM; GI50 [5]: 0.063 µM; GI50 [6]: 0.095 µM; GI50 [7]: 0.06 µM; GI50 [8]: 0.073 µM; GI50 ([9]; read-out: GI50 MDA-MB-231, MTT, 72 hours incubation, MDA-MB-231 cells): 0.015 µM; GI50 [10]: 0.11 µM; GI50 [11]: 0.04 µM; GI50 [12]: 0.019 µM; GI50 [13]: 0.041 µM; GI50 [14]: 0.068 µM; GI50 [15]: 0.05 µM; GI50 [16]: 0.04 µM; GI50 [17]: 0.071 µM; GI50 [18]: 0.04 µM; GI50 [19]: 0.09 µM; GI50 [20]: 0.05 µM
